Test results published in ChEMBL document CHEMBL1135457 (J Med Chem, 2002).

Key:
[1] = target: T1, Mineralocorticoid receptor (Homo sapiens) (UniProt P08235)
T1 sequence (whole entry): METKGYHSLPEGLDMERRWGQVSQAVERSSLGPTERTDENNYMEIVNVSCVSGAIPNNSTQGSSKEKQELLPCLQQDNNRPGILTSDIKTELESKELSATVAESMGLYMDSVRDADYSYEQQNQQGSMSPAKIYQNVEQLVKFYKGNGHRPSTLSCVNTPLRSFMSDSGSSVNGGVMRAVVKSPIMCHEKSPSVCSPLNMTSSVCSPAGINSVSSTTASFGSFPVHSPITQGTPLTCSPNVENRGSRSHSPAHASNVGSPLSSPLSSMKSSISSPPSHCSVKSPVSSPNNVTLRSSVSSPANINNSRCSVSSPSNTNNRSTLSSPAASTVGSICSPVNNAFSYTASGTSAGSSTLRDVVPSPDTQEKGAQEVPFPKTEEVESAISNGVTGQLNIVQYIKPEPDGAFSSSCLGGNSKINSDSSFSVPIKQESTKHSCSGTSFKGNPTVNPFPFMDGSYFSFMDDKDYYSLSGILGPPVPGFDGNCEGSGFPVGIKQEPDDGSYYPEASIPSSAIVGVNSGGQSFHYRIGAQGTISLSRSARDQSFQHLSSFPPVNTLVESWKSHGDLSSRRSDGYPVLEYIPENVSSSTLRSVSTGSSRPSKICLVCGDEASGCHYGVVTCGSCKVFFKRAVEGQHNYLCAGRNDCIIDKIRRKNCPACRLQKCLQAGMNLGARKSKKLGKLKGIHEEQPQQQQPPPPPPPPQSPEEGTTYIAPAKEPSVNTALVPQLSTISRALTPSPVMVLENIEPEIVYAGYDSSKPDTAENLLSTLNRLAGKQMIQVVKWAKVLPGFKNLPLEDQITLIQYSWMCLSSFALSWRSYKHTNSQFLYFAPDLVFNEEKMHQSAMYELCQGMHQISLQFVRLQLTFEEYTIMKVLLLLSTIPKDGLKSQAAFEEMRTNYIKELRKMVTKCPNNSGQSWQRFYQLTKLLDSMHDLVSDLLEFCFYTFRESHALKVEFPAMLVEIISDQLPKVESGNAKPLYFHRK

[2] = target: T2, Glucocorticoid receptor (Homo sapiens) (UniProt P04150)
T2 sequence (whole entry): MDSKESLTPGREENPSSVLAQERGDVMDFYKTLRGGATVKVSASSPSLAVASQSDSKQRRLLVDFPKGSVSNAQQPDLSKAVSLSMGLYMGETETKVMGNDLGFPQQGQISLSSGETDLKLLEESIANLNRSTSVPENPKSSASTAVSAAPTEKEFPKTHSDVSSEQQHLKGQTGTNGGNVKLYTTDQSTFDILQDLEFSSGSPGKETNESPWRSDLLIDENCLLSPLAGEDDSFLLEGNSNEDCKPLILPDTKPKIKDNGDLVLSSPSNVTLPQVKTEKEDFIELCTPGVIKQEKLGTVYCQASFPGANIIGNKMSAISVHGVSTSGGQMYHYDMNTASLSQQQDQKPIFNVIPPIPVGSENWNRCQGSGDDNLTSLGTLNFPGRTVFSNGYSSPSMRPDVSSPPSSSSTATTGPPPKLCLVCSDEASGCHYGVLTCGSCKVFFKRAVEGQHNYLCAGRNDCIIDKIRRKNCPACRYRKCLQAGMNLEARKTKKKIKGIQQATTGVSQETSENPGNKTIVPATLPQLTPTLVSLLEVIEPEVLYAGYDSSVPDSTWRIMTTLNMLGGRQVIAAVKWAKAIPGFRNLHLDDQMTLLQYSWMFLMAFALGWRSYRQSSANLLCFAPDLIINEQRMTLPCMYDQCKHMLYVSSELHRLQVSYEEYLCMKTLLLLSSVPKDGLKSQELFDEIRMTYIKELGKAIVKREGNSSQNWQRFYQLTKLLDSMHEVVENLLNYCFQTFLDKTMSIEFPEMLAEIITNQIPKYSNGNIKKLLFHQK
Description: (§1) Antagonist activity as displacement of 10 nM [3H]dexamethasone from human Glucocorticoid receptor

[3] = target: T3, Progesterone receptor (Homo sapiens) (UniProt P06401)
T3 sequence (whole entry): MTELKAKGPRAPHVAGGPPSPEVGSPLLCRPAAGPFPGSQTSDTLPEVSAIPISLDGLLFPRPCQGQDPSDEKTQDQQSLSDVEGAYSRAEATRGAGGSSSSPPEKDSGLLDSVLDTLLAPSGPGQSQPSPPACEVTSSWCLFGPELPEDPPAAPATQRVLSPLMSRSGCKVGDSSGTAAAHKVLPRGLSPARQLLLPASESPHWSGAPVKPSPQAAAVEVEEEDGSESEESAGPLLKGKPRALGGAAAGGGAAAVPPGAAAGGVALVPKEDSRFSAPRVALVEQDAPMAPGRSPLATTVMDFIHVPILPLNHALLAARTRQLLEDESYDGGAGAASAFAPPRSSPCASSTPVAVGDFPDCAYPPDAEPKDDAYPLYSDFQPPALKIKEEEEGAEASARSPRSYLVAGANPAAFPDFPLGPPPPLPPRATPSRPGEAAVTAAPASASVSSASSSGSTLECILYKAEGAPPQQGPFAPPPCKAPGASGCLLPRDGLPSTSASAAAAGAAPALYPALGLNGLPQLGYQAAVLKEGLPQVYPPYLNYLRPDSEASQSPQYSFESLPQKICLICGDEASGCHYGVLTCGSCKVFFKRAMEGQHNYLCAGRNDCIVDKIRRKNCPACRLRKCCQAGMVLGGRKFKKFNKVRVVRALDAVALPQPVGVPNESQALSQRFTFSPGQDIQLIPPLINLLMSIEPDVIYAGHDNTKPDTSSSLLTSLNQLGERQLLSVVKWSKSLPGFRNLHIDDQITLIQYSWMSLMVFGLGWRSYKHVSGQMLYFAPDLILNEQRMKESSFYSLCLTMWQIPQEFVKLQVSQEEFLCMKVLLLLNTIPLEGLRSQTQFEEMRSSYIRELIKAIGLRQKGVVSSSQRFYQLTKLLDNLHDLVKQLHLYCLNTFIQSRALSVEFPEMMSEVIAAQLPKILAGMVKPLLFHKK
Description: (§2) Antagonist activity against human Progesterone receptor by displacement of radioligand

[4] = target: T4, Estrogen receptor (Homo sapiens) (UniProt P03372); assay: Displacement of radioligand from human Estrogen receptor alpha, percent inhibition at 10 uM
T4 sequence (whole entry): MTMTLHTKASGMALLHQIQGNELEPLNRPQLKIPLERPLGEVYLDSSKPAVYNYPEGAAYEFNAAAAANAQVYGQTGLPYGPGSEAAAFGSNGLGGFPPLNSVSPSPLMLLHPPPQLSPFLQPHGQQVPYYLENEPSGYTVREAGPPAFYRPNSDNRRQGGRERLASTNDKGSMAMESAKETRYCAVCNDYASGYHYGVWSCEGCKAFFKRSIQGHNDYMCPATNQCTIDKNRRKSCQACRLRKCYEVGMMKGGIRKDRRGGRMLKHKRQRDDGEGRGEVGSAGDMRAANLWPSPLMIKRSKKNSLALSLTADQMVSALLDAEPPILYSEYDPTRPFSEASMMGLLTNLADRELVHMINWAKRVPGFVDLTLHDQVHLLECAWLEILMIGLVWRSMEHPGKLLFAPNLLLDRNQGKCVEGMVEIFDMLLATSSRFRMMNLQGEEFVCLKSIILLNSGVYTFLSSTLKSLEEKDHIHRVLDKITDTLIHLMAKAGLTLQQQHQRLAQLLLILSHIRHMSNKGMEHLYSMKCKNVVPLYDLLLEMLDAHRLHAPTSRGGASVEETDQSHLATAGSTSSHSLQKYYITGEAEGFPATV

Estrogen receptor beta [5] = target: T5, Estrogen receptor beta (Homo sapiens, UniProt Q92731); assay: Displacement of radioligand from human Estrogen receptor beta, percent inhibition at 10 uM
[6] = target: T1, Mineralocorticoid receptor (Homo sapiens); remark: listed apart in the source
[7] = target: T3, Progesterone receptor (Homo sapiens); remark: listed apart in the source
Description: as §2

[8] = target: T2, Glucocorticoid receptor (Homo sapiens); remark: listed apart in the source
Description: as §1

Androgen receptor = target: T6, Androgen receptor (Homo sapiens, UniProt P10275); assay: Displacement of [3H]DHT from human Androgen receptor
T6 sequence (P10275 whole entry): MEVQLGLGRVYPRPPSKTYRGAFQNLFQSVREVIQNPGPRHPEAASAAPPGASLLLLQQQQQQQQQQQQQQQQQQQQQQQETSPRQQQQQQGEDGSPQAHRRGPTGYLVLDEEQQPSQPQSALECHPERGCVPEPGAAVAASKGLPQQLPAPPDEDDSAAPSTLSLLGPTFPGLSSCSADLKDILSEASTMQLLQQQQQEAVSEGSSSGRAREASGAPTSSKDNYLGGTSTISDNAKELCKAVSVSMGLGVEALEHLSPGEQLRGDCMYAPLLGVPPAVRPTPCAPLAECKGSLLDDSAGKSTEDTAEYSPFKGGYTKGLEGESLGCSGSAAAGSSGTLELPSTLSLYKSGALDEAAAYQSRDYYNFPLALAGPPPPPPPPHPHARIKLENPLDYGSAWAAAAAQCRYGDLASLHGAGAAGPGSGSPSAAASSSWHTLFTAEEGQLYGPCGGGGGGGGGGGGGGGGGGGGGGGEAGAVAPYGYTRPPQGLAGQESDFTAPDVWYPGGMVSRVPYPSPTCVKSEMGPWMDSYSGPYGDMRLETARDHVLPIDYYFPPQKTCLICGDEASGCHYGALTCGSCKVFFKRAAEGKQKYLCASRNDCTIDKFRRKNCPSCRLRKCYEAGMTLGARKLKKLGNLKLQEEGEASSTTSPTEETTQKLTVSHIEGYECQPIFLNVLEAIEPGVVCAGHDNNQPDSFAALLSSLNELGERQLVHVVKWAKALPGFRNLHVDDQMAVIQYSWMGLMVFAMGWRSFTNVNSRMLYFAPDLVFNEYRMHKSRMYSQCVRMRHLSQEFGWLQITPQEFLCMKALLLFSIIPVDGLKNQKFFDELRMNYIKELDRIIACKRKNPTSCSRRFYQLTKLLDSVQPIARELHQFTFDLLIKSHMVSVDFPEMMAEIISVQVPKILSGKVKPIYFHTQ

Estrogen receptor beta [9] = target: T5, Estrogen receptor beta; assay: Displacement of radioligand from human ER beta
Progesterone receptor = target: T7, Progesterone receptor (Homo sapiens, UniProt P06401); assay: Displacement of radioligand from human Progesterone receptor
T7 sequence (P06401 whole entry): T3 sequence (whole entry)

Estrogen receptor = target: T8, Estrogen receptor (Homo sapiens, UniProt P03372); assay: Displacement of radioligand from human Estrogen receptor alpha
T8 sequence (P03372 whole entry): T4 sequence (whole entry)

Glucocorticoid receptor = target: T9, Glucocorticoid receptor (Homo sapiens, UniProt P04150); assay: Displacement of 10 nM [3H]dexamethasone from human Glucocorticoid receptor
T9 sequence (P04150 whole entry): T2 sequence (whole entry)

[10] = target: T1, Mineralocorticoid receptor (Homo sapiens); assay: Antagonist activity against human mineralocorticoid receptor as displacement of radioligand, percent […]; type: functional
[11] = target: T3, Progesterone receptor (Homo sapiens); settings: 1 uM
Description: Antagonist activity against human Progesterone receptor as displacement of radioligand, percent inhibition at 1 uM

T5 sequence (Q92731 whole entry): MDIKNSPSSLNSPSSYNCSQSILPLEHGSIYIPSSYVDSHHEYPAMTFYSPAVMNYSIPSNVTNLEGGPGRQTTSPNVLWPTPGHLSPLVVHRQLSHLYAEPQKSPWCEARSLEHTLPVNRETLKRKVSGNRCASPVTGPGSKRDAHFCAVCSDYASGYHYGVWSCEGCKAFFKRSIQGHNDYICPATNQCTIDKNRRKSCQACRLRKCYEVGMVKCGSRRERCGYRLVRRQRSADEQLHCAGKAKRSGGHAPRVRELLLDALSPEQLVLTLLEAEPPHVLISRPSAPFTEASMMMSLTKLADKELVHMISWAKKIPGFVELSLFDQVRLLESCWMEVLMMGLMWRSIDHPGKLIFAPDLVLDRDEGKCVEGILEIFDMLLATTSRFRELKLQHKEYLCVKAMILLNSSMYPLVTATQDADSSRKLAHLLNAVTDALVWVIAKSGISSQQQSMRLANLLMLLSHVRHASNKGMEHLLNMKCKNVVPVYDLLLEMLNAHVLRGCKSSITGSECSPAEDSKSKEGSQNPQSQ

Row | Kif [1] | Kif [2] | Kif [3] | inhibition [4] | inhibition (Estrogen receptor beta [5]) | Ki (Androgen receptor) | Ki (Progesterone receptor) | Ki (Glucocorticoid receptor) | SMILES | other results
1 | > 1000 nM | > 1000 nM | > 1000 nM | 70% | 39% | – | – | – | O=C1C=C2CCc3cc(O)ccc3C2(Cc2ccccc2)CC1 (single isomer, unassigned; form 2) [listing 1 of 2 here] | –
2 | – | – | – | – | – | 54 nM | > 10 µM | > 10 µM | COc1ccc2c(c1)CCC1=CC(=O)CCC12Cc1ccccc1 (single isomer, unassigned; form 2) [listing 2 of 2 here] | Ki (Estrogen receptor beta [9]): > 10 µM; Ki (Estrogen receptor): > 10 µM
3 | – | 2 nM | 11.8 nM | 44% | 92% | – | – | – | CC#C[C@]1(O)CC[C@H]2[C@@H]3CCC4=CC(=O)CCC4=C3[C@@H](c3ccc(N(C)C)cc3)C[C@@]21C | Kif [6]: < 10 nM; inhibition [10]: 69.7%; inhibition [11]: 100%

More lines, now with the values behind:

Row | SMILES | Kif [1] | Kif [2] | Kif [3] | inhibition [4] | inhibition (Estrogen receptor beta [5]) | Ki (Androgen receptor) | Ki (Progesterone receptor) | Ki (Glucocorticoid receptor) | other results
4 | COc1ccc2c(c1)CCC1=CC(=O)CCC12Cc1ccccc1 (single isomer, unassigned; form 2) [listing 1 of 2 here] | – | > 1000 nM | – | – | – | – | – | – | Kif [6]: > 1000 nM; Kif [7]: > 1000 nM
5 | O=C1C=C2CCc3cc(O)ccc3C2(Cc2ccccc2)CC1 (single isomer, unassigned; form 1) [listing 1 of 2 here] | > 1000 nM | – | > 1000 nM | 36% | 24% | – | – | – | Kif [8]: > 1000 nM
6 | O=C1C=C2CCc3cc(O)ccc3C2(Cc2ccccc2)CC1 (single isomer, unassigned; form 1) [listing 2 of 2 here] | – | – | – | – | – | > 10000 nM | > 10 µM | > 10 µM | –
7 | O=C1C=C2CCc3cc(O)ccc3C2(Cc2ccccc2)CC1 (single isomer, unassigned; form 2) [listing 2 of 2 here] | – | – | – | – | – | 180 nM | > 10 µM | 0.157 µM | –
8 | COc1ccc2c(c1)CCC1=CC(=O)CCC12Cc1ccccc1 (single isomer, unassigned; form 1) [listing 1 of 2 here] | – | – | – | – | – | 690 nM | > 10 µM | > 10 µM | Ki (Estrogen receptor beta [9]): > 10 µM
9 | COc1ccc2c(c1)CCC1=CC(=O)CCC12Cc1ccccc1 (single isomer, unassigned; form 1) [listing 2 of 2 here] | > 1000 nM | > 1000 nM | > 1000 nM | 27% | – | – | – | – | –
